Data on 10 compounds can be found in patent US11634384B2, “Prodrugs of phenolic TRPV1 agonists” (Concentric Analgesics, Inc., priority 2014, dated 2023).

Read-outs that look alike come from different tables or passages of the source.

Usually solubility stands for the concentration that dissolves in the medium under given conditions. What is called inhibition is the relative decrease from the control value, in per cent. A lower inhibition goes with a weak effect.

The conditions of data set [1]: comparison value; cited from earlier work.
Data set [2] is described as follows: In vitro (pH stability) assay: intramolecular cyclization-release of capsaicin. The data set is classed as physicochemical. As to the method: These compounds are examples of pH activated prodrugs whereby upon exposure to a specific pH, the half-life of the intramolecular cyclization-release reaction is determined. As previously described, the intramolecular cyclization-release reaction results in the concomitant formation of a cyclic urea with the release of the parent drug.
Compounds were incubated in the buffer/biological media indicated (TRIS® obtained from Sigma-Aldrich, St. Louis, Mo., USA, Catalog No. T1503). The reactions were conducted at either room temperature or 37° C.

Data set [3] is described as follows: Solubility assay in DI water. Conditions: for solubility at 24 h: thermodynamic from solid, HCl salts, incubated at 50 or 100 mg/mL in DI water, shaking 24 hours, supernatant quantified. The class given is physicochemical. As to the method: In order to determine the aqueous solubility of the compounds described herein, the HCl salts of the following compounds were incubated at either 50 or 100 mg/mL in DI water followed by shaking for 24 hours. The solutions were then centrifuged and visually inspected for insoluble material. In all cases, no insoluble material was observed.

The target of data set [4] is T1, TRPV receptor (Rattus norvegicus, UniProt O35433).
T1 construct: purchased Eurofins, Panlabs/Cerep 286810
The data set is described as follows: biochemical. The class given is binding.

For data set [5], the target named is T1, TRPV receptor. Conditions: historical controls; read-out: historical control value; cited from earlier work.
The mark [6] stands for this setting: pH 7.4, pH = ~7.4 (0.3M aqueous tris buffer), 20° C., read-out: Intramolecular Cyclization-Release Half-life (T1/2).
[7] abbreviates: pH 7.4, pH = ~7.4 (1.0M aqueous tris buffer), 37° C., read-out: Intramolecular Cyclization-Release Half-life (T1/2).

T1 sequence (O35433 whole entry): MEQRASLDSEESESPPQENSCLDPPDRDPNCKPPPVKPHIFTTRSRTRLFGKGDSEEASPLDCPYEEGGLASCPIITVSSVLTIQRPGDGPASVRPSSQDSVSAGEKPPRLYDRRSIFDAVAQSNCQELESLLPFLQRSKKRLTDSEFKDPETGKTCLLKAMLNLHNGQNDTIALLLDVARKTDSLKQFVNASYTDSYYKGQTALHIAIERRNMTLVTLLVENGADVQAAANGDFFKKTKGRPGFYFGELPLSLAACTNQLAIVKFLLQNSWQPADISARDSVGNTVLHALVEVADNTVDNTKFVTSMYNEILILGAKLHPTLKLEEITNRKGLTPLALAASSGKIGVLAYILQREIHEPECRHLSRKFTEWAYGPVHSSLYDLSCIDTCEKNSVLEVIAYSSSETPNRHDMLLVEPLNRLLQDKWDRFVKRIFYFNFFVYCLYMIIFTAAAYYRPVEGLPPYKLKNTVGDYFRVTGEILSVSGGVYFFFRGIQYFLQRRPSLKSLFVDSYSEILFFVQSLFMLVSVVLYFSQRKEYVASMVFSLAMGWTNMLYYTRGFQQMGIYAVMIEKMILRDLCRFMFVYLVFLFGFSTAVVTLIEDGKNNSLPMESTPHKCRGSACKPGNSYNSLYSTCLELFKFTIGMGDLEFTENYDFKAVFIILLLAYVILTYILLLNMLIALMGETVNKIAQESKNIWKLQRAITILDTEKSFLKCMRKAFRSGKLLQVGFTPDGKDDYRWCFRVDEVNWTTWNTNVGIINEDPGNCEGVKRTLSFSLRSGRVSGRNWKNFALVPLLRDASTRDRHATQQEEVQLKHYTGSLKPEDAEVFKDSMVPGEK

As for `COc1cc(CNC(=O)CCCCC=CC(C)C)ccc1O` [Capsaicin, 8-methyl-N-vanillyl-6-nonenamide], the “aqueous solubility of capsaicin in water” value in data set [1] is recorded as approximately 0.064 mg/mL.
With `COc1cc(CNC(=O)CCCC/C=C/C(C)C)ccc1OC(=O)N(C)CCN` [Compound 1, (E)-2-methoxy-4-((8-methylnon-6-enamido)methyl)phenyl (2-aminoethyl)(methyl)carbamate], the half-life in data set [2] (setting [6]) is approximately 24.1 h.
Same read-out and setting: then `CNCCN(C)C(=O)Oc1ccc(CNC(=O)CCCC/C=C/C(C)C)cc1OC` [Compound 2, (E)-2-methoxy-4-((8-methylnon-6-enamido)methyl)phenyl methyl(2-(methylamino)ethyl)carbamate], with approximately 3.2 h.
For `COc1cc(CNC(=O)CCCC/C=C/C(C)C)ccc1OC(=O)N1CCCCC1CN` (stereo not drawn) [Compound 3, (E)-2-methoxy-4-((8-methylnon-6-enamido)methyl)phenyl 2-(aminomethyl)piperidine-1-carboxylate], the “increase in aqueous solubility from the parent compound, capsaicin” value in data set [3] (hydrogen chloride salts vs capsaicin) is on record as more than 780 fold. In addition, in data set [3], the solubility at 24 h was more than 100 mg/mL. The half-life is approximately 0.527 h in data set [2] (setting [6]) and approximately 0.215 h in data set [2] (setting [7]).
With `COc1cc(CNC(=O)CCCC/C=C/C(C)C)ccc1OC(=O)N1CCCC1CN` (stereo not drawn) [Compound 4, (E)-2-methoxy-4-((8-methylnon-6-enamido)methyl)phenyl 2-(aminomethyl)pyrrolidine-1-carboxylate], the half-life in data set [2] (setting [6]) was approximately 295 h.
With `COc1cc(CNC(=O)CCCC/C=C/C(C)C)ccc1OC(=O)N(CCN)CCN` [Compound 5, (E)-2-methoxy-4-((8-methylnon-6-enamido)methyl)phenyl bis(2-aminoethyl)carbamate], the solubility at 24 h in data set [3] was more than 100 mg/mL. The half-life is approximately 1.18 h in data set [2] (setting [6]) and approximately 0.412 h in data set [2] (setting [7]).
As to `COc1cc(CNC(=O)CCCC/C=C/C(C)C)ccc1OC(=O)N(C)CCCN` [Compound 6, (E)-2-methoxy-4-((8-methylnon-6-enamido)methyl)phenyl (3-aminopropyl)(methyl)carbamate], the half-life in data set [2] (setting [6]) was approximately 739 h.
As to `CNCC1CCCCN1C(=O)Oc1ccc(CNC(=O)CCCC/C=C/C(C)C)cc1OC` (stereo not drawn) [Compound 7, (E)-2-methoxy-4-((8-methylnon-6-enamido)methyl)phenyl 2-((methylamino)methyl)piperidine-1-carboxylate], the solubility at 24 h in data set [3] was more than 50 mg/mL. Also, the “intramolecular cyclization-release half-life, order of magnitude in words” value in data set [2] was “minutes”. Moreover, the “Intramolecular Cyclization-Release Half-life (T1/2)” value in data set [2] (pH 7.4) is approximately 3.1 min. The same compound yielded a half-life in data set [2] (pH 7.4, Intramolecular Cyclization-Release Half-life (T1/2)) of approximately 0.0733 h.
As for `COc1cc(CNC(=O)CCCC/C=C/C(C)C)ccc1OC(=O)N1CCNCC1` [Compound 8, (E)-2-methoxy-4-((8-methylnon-6-enamido)methyl)phenyl piperazine-1-carboxylate], the inhibition at 100 µM in data set [4] (@ 100 uM) was 23%. In addition, the IC50 in data set [4] (read-out: IC50) was more than 100000 nM. Further, the half-life at 2 weeks in data set [2] (pH 7.4, pH = ~7.4 (0.3M aqueous tris buffer), 20° C., conversion to capsaicin over 2 weeks, read-out: Intramolecular Cyclization-Release Half-life (T1/2)) is more than 336 h.
For the compound `C=C(C)[C@]12C[C@@H](C)[C@@]34O[C@](Cc5ccccc5)(O[C@@H]1[C@@H]3C=C(COC(=O)Cc1ccc(O)c(OC)c1)C[C@]1(O)C(=O)C(C)=C[C@@H]41)O2` [Resiniferatoxin, reference compound], the IC50 in data set [4] is 0.16 nM; in data set [5], 0.46 nM.
